In brackets after ≈: the same amount, converted by molar mass. Read-outs that look alike come from different tables or passages of the source.
Experiments:
S. aureus ATCC 29213 = test: microbe, parasite or virus in culture; settings: Staphylococcus aureus
Procedure: MIC determinations were performed using the broth microdilution method and in line with CLSI guidelines M07 and M100 (refs. [37],[38]). Bacterial inocula were prepared by diluting a 0.5 McFarland suspension in CAMHB or lysogeny broth (LB) specifically for A. baylyi isolates. […] MIC values of all of the tested antibiotics were read as the lowest compound concentration inhibiting bacterial growth by naked eye or beyond which the OD600 ceased to decrease.

CYP2C9 = CYP2C9 (Homo sapiens, UniProt P11712); test: CYP inhibition; format: in vitro ADME
Chain of CYP2C9 (P11712 whole entry): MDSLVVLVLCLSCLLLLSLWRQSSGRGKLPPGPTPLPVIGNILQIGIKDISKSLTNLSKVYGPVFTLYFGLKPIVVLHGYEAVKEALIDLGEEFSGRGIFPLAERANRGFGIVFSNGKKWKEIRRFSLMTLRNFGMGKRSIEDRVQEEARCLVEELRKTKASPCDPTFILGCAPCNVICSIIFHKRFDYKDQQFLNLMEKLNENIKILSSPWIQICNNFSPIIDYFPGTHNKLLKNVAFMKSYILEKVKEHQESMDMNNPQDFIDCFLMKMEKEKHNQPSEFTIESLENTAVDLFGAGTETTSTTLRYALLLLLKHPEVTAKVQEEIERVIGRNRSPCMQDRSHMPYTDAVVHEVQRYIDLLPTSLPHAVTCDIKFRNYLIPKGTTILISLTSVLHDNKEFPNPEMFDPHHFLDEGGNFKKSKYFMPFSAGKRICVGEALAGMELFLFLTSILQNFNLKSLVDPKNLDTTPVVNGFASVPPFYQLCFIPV

CYP2D6 = CYP2D6 (Homo sapiens, UniProt P10635); test: CYP inhibition; format: in vitro ADME
Chain of CYP2D6 (P10635 whole entry): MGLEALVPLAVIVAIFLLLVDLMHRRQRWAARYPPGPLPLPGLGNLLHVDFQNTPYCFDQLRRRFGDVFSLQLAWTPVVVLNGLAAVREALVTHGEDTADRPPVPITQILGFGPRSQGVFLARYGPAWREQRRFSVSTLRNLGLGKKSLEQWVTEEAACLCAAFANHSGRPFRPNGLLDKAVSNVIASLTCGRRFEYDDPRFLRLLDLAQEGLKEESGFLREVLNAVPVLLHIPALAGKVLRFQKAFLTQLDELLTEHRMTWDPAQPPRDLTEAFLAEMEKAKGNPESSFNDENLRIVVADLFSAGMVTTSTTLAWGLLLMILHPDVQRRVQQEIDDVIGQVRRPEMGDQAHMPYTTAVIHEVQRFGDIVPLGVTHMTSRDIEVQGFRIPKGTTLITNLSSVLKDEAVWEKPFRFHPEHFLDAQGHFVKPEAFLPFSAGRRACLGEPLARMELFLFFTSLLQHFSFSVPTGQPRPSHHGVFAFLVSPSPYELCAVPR

[1] = Mouse pharmacokinetics study, i.v. bolus; format: in vivo; settings: male CD1 mice, 1 mg/kg IV
Procedure: Three male CD1 mice were administered with compound formulation (0.5 mg ml^−1 in 0.9% aqueous sodium chloride solution) as an intravenous bolus dose of 1 mg per kg. Blood was sampled at 0.08, 0.25, 0.5, 1, 2, 4, 7 and 24 h after administration and the blood collecting tubes were centrifuged for 5 min at 5,200g at room temperature to isolate the plasma supernatant. The concentrations of compound in the plasma were analysed using a liquid chromatography–mass spectrometry method with a calibration range of 5–10,000 ng ml^−1. The pharmacokinetic parameters were derived from the individual concentration data and were estimated by non-compartmental analysis.

Acetylcholinesterase = target: T1, Acetylcholinesterase (Homo sapiens, UniProt P22303); test: Off-target screening (CEREP); format: biochemical; settings: 10 µM, duplicates; read-out: percent inhibition
T1 construct: purchased Eurofins CEREP SA
T1 sequence (P22303 32-614): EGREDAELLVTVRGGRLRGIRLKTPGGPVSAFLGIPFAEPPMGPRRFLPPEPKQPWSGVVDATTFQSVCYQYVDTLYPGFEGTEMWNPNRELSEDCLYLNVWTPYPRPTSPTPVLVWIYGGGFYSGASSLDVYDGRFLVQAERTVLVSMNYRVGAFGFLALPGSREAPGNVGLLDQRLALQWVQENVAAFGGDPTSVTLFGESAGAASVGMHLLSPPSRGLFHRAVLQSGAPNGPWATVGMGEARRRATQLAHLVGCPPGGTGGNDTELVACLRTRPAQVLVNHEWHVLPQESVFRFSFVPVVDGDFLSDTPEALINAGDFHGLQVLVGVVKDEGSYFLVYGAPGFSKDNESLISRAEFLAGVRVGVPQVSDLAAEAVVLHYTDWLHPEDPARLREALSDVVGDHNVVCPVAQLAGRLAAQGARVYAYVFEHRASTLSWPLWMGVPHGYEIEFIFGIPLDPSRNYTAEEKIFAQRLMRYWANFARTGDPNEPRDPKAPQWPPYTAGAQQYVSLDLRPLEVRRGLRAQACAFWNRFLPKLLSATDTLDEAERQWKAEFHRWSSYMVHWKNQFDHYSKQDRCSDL
Procedure: (§1) Supplementary Table 1 │ Off-target activity screening f or MCP compou nds […]
(§2) The assays given in the table above were conducted at Eurofins CEREP S A (Celle-Lévescault, France) and were run as single point measurements in duplicates in the presence of 10 µ M of the test compound and reported as percent inhibition of the radioligand signal or control enzymatic activity. n.d., not

[2] = target: T2, Angiotensin converting enzyme (Homo sapiens, UniProt P12821); test: Off-target screening (CEREP); format: biochemical; settings: 10 µM, duplicates; read-out: percent inhibition
T2 construct: purchased Eurofins CEREP SA
Procedure: as §1, §2

Cyclooxygenase 2 = target: T3, Cyclooxygenase 2 (Homo sapiens, UniProt P35354); test: Off-target screening (CEREP); format: biochemical; settings: 10 µM, duplicates; read-out: percent inhibition
T3 construct: purchased Eurofins CEREP SA
T3 sequence (P35354 18-604): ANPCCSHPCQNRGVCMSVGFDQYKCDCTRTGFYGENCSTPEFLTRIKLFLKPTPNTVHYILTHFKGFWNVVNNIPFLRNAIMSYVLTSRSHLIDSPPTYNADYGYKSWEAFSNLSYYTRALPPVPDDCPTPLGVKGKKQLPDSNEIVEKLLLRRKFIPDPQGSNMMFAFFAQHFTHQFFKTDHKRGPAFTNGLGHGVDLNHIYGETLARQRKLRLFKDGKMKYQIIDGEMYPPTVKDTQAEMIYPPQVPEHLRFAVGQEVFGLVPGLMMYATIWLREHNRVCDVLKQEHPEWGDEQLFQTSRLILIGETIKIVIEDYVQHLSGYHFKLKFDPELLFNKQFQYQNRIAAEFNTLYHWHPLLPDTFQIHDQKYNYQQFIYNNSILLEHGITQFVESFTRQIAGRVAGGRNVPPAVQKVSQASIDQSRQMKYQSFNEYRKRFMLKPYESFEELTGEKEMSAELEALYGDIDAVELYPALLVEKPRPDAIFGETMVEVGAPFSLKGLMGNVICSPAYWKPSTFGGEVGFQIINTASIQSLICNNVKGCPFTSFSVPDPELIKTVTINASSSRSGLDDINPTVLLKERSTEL
Procedure: as §1, §2

GSK-3A = target: T4, GSK-3A (Homo sapiens, UniProt P49840); test: Off-target screening (CEREP); format: biochemical; settings: 10 µM, duplicates; read-out: percent inhibition
T4 construct: purchased Eurofins CEREP SA
T4 sequence (P49840 whole entry): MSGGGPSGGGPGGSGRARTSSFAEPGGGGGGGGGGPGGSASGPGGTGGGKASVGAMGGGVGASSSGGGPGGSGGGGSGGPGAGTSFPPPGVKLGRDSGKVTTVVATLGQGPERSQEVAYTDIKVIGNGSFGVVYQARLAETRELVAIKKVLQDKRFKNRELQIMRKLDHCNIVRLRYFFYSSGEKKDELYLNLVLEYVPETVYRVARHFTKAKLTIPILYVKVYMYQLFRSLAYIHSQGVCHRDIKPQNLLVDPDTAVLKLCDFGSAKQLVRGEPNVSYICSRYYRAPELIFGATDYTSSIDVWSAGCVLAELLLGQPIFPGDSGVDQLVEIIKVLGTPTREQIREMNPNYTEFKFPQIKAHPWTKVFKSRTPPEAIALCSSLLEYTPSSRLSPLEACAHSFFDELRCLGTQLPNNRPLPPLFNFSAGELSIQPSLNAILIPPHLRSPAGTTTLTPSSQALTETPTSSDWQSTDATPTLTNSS
Procedure: as §1, §2

HIV-1 protease = test: Off-target screening (CEREP); format: biochemical; settings: 10 µM, duplicates
Procedure: as §1, §2

Matrix metalloprotease-9 = target: T5, Matrix metalloprotease-9 (Homo sapiens, UniProt P14780); test: Off-target screening (CEREP); format: biochemical; settings: 10 µM, duplicates; read-out: percent inhibition
T5 construct: purchased Eurofins CEREP SA
T5 sequence (P14780 94-707): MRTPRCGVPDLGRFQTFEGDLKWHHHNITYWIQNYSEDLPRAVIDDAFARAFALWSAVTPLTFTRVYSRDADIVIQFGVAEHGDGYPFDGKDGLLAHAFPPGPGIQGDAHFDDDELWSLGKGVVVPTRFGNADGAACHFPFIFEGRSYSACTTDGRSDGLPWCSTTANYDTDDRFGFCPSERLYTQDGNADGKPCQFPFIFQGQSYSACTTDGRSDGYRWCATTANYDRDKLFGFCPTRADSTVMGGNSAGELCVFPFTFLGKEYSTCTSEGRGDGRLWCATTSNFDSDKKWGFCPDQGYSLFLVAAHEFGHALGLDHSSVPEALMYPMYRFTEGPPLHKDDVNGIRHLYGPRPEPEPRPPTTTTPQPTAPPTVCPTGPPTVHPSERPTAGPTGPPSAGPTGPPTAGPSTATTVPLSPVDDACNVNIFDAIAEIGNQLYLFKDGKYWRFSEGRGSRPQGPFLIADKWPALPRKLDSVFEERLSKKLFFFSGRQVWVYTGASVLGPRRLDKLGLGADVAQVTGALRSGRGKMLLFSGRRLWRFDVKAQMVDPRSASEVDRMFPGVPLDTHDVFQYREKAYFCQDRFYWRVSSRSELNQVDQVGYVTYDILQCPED
Procedure: as §1, §2

Phosphodiesterase 4D2 = target: T6, Phosphodiesterase 4D2 (Homo sapiens, UniProt Q08499); test: Off-target screening (CEREP); format: biochemical; settings: 10 µM, duplicates; read-out: percent inhibition
T6 construct: purchased Eurofins CEREP SA
T6 sequence (Q08499 303-809 limits assumed): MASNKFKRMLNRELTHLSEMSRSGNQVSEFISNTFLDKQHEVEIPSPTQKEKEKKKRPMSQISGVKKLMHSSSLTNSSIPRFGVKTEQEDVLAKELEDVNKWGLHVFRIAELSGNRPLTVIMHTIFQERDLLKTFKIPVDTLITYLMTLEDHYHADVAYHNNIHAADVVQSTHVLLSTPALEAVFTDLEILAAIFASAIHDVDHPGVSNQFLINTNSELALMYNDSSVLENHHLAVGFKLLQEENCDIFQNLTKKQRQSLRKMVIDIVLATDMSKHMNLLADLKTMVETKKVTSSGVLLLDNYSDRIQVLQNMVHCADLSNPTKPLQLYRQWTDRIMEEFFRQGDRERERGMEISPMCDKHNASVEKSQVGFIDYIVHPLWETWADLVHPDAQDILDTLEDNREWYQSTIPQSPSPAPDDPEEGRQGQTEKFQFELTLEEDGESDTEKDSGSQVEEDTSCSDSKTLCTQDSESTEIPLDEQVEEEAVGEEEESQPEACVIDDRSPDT
Procedure: as §1, §2

ZAP70 kinase = target: T7, ZAP70 kinase (Homo sapiens, UniProt P43403); test: Off-target screening (CEREP); format: biochemical; settings: 10 µM, duplicates; read-out: percent inhibition
T7 construct: purchased Eurofins CEREP SA
T7 sequence (P43403 1-619): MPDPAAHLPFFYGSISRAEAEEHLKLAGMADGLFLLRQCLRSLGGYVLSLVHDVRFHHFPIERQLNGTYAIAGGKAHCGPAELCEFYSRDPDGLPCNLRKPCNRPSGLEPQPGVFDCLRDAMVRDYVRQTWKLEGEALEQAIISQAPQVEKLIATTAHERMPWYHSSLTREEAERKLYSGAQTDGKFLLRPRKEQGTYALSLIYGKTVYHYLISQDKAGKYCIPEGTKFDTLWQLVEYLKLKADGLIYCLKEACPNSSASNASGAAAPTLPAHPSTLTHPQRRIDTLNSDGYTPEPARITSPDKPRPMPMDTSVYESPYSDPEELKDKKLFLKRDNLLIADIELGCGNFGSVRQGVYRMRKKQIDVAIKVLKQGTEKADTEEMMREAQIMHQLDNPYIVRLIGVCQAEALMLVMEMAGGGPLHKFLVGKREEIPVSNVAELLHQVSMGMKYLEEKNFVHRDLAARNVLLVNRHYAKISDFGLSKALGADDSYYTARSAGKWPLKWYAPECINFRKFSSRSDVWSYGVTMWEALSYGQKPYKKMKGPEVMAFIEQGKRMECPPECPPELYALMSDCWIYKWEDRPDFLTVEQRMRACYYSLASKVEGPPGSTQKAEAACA
Procedure: as §1, §2

[3] = test system: GSK-3A (second line so named); test: Off-target screening (CEREP); format: biochemical, human; settings: 10 µM, duplicates
Procedure: as §1, §2

[4] = test system: Nicotinic receptor, muscle; test: Off-target screening (CEREP); format: binding, human; settings: 10 µM, duplicates
Procedure: as §1, §2

[5] = test system: Nicotinic receptor, neuronal; test: Off-target screening (CEREP); format: binding, human; settings: 10 µM, duplicates
Procedure: as §1, §2

Xanthine oxidase = target: T8, Xanthine oxidase (Bos taurus, UniProt P80457); test: Off-target screening (CEREP); format: biochemical, bovine; settings: 10 µM, duplicates; read-out: percent inhibition
T8 construct: purchased Eurofins CEREP SA
T8 sequence (P80457 whole entry): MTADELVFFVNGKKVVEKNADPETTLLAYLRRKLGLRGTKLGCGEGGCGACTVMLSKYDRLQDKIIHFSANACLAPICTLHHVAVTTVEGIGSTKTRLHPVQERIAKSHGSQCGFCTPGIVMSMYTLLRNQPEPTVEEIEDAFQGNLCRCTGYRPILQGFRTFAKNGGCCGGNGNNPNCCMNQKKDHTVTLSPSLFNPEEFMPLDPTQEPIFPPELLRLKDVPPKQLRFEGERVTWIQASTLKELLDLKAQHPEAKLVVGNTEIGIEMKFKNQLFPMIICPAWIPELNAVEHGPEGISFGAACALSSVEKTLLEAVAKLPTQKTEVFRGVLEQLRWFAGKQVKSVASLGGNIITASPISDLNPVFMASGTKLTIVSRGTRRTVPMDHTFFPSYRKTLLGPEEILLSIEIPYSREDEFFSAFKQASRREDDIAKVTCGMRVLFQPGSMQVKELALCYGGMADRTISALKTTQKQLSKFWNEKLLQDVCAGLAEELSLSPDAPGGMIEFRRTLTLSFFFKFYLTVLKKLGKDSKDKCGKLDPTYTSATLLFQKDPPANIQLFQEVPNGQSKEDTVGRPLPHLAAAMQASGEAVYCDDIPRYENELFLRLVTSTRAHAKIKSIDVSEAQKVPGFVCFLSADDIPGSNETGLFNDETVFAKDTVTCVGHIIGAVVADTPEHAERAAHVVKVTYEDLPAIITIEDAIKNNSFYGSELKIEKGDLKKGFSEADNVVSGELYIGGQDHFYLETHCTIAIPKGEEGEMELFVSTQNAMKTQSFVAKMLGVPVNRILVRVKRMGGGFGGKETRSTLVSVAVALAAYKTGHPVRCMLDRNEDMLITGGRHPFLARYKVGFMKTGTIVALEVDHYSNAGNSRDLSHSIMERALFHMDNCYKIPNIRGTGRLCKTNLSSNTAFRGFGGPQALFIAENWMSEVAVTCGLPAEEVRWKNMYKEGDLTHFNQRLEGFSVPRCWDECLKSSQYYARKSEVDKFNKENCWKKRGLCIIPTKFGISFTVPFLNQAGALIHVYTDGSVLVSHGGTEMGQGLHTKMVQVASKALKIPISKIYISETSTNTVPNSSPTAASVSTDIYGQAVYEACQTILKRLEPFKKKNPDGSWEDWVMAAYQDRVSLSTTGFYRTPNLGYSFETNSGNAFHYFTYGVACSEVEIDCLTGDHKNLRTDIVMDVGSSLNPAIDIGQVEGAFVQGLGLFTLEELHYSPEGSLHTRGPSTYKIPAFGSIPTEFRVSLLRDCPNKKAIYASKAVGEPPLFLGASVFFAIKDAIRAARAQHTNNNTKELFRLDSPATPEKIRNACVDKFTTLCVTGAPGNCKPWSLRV
Procedure: as §1, §2

[6] = ATCC29213, CAMHB, mode of at least three replicates (RO7036668 one replicate)

CN1C(=O)[C@H](CCCCN)NC(=O)[C@H](CCCN)NCc2cccnc2Sc2c(Cl)ccc(-c3ccc(C(=O)O)cc3)c2CNC(=O)[C@@H]1Cc1c[nH]c2ccccc12 [RO7202110]
MIC (S. aureus ATCC 29213; [6]): > 64 µg/mL
Ames (Ames): Negative
CYP inh. (2C9) (CYP2C9): >50 (3A4) >50 (2C9) >50 (2D6) μM
CYP inh. (2D6) (CYP2D6): >50 (3A4) >50 (2C9) >50 (2D6) μM
Vss ([1]; n = 3): 0.9 L/kg
t1/2, terminal plasma half-life ([1]; n = 3): 12 min
Cl ([1]; n = 3, LC-MS, non-compartmental): 84 mL/min/kg
inhibition at 10 µM (Acetylcholinesterase): 40%
inhibition at 10 µM [2]: 3%
inhibition at 10 µM (Cyclooxygenase 2): 12%
inhibition at 10 µM (GSK-3A): 22%
percent inhibition (HIV-1 protease): 12%
inhibition at 10 µM (Matrix metalloprotease-9): 13%
inhibition at 10 µM (Phosphodiesterase 4D2): -3%
inhibition at 10 µM (ZAP70 kinase): -39%
percent inhibition [3]: -6%
percent inhibition [4]: 11%
percent inhibition [5]: 4%
inhibition at 10 µM (Xanthine oxidase): 0%

C[C@@H](O)[C@H]1C(=O)N2C(C(=O)O)=C(S[C@@H]3CN[C@H](C(=O)N(C)C)C3)[C@H](C)[C@H]12 [meropenem, reference compound]
MIC (S. aureus ATCC 29213; [6]): 0.12 µg/mL (≈ 0.313 µM)
MIC (S. aureus ATCC 29213; ATCC29213, read-out: MIC 100%, Study LGC277937, 100%): 0.12 µg/mL (≈ 0.313 µM)
MIC (S. aureus ATCC 29213; ATCC29213, read-out: MIC 100%, Study LGC279800, 100%): ≤ 0.06 µg/mL
MIC (S. aureus ATCC 29213; ATCC29213, read-out: MIC 100%, Study LGC281440, 100%): 0.12 µg/mL (≈ 0.313 µM)
MIC (S. aureus ATCC 29213; ATCC29213, read-out: MIC 100%, Study LGC282160, 100%): ≤ 0.06 µg/mL
MIC (S. aureus ATCC 29213; ATCC29213, read-out: MIC 100%, Study LGC282623, 100%): 0.12 µg/mL (≈ 0.313 µM)
MIC (S. aureus ATCC 29213; ATCC29213, read-out: MIC 100%, Study LGC283932, 100%): 0.12 µg/mL (≈ 0.313 µM)
MIC (S. aureus ATCC 29213; ATCC29213, read-out: MIC 100%, Study LGC284200, 100%): 0.12 µg/mL (≈ 0.313 µM)
MIC (S. aureus ATCC 29213; ATCC29213, read-out: MIC 100%, Study LGC284879, 100%): 0.12 µg/mL (≈ 0.313 µM)
MIC (S. aureus ATCC 29213; ATCC29213, read-out: MIC 100%, Study LGC285582, 100%): 0.12 µg/mL (≈ 0.313 µM)
MIC (S. aureus ATCC 29213; ATCC29213, read-out: MIC 100%, Study LGC286210, 100%): 0.25 µg/mL (≈ 0.652 µM)
MIC (S. aureus ATCC 29213; ATCC29213, read-out: MIC 100%, Study LGC293598, 100%): 0.12 µg/mL (≈ 0.313 µM)
MIC (S. aureus ATCC 29213; ATCC29213, read-out: MIC 100%, Study LGC294355, 100%): ≤ 0.06 µg/mL
MIC (S. aureus ATCC 29213; ATCC29213, read-out: MIC 100%, Study LGC295147, 100%): 0.12 µg/mL (≈ 0.313 µM)
MIC (S. aureus ATCC 29213; ATCC29213, read-out: MIC 100%, Study LGC296813, 100%): ≤ 0.06 µg/mL
MIC (S. aureus ATCC 29213; ATCC29213, read-out: MIC 100%, Study LGC299544, 100%): 0.12 µg/mL (≈ 0.313 µM)
MIC (S. aureus ATCC 29213; ATCC29213, read-out: MIC 100%, Study LGC301026, 100%): 0.12 µg/mL (≈ 0.313 µM)
MIC (S. aureus ATCC 29213; ATCC29213, read-out: MIC 100%, Study LGC308175, 100%): ≤ 0.06 µg/mL
MIC (S. aureus ATCC 29213; ATCC29213, read-out: MIC 100%, Study ROC003, 100%): ≤ 0.06 µg/mL
MIC (S. aureus ATCC 29213; ATCC29213, read-out: MIC 100%, Study ROC004, 100%): ≤ 0.06 µg/mL
MIC (S. aureus ATCC 29213; ATCC29213, read-out: MIC 100%, Study ROC005, 100%): ≤ 0.06 µg/mL
MIC (S. aureus ATCC 29213; ATCC29213, read-out: MIC 100%, Study ROC006, 100%): 0.12 µg/mL (≈ 0.313 µM)
MIC (S. aureus ATCC 29213; ATCC29213, read-out: MIC 100%, Study ROC007, 100%): 0.12 µg/mL (≈ 0.313 µM)
MIC (S. aureus ATCC 29213; ATCC29213, read-out: MIC 100%, Study ROC008, 100%): 0.12 µg/mL (≈ 0.313 µM)
MIC (S. aureus ATCC 29213; ATCC29213, read-out: MIC 100%, Study ROC009, 100%): ≤ 0.06 µg/mL
MIC (S. aureus ATCC 29213; ATCC29213, read-out: MIC 100%, Study ROC010, 100%): ≤ 0.06 µg/mL
MIC (S. aureus ATCC 29213; ATCC29213, read-out: MIC 100%, Study ROC012, 100%): ≤ 0.06 µg/mL
MIC (S. aureus ATCC 29213; ATCC29213, read-out: MIC 100%, Study ROC013, 100%): 0.12 µg/mL (≈ 0.313 µM)

— article PMC10794144, “A novel antibiotic class targeting the lipopolysaccharide transporter” (Nature, 2024)
